Literature values in US4756118A, “Method and apparatus for the destruction of imported fire ants of the genus Solenopsis” (priority 1986, dated 1988).

Assays:
Imported Fire Ant = conditions: poison bait
[1] = relative to pyrethrum

Compound | effectiveness in Imported Fire Ant control (Imported Fire Ant) | Acute Oral LD50 | times more effective than pyrethrum [1] [times]
CC1(C)CNC(=NN=C(C=Cc2ccc(C(F)(F)F)cc2)C=Cc2ccc(C(F)(F)F)cc2)NC1 [Amdro] | very limited in its effectiveness |  | 
ClC1(Cl)C2(Cl)C3(Cl)C4(Cl)C(Cl)(Cl)C5(Cl)C3(Cl)C1(Cl)C5(Cl)C24Cl (centres unmarked) [Mirex, dodecachloroocta-hydro-1,3,4-metheno-2H-cyclobuta(cd)pentalene] | most effective chemical control agent | 306 mg/kg | 
CC(C)=CC1C(C(=O)OCc2coc(Cc3ccccc3)c2)C1(C)C (centres unmarked) [Resmethrin, [5-(phenylmethyl)-3-furanyl]methyl 2,2-dimethyl-3-(2-methyl-1-propenyl)cyclopropanecarboxylate] |  | 4,420 mg./kg. | ~20
